Source: paper PMC3021692, “Synthesis and Pharmacological Evaluation of Novel Schiff Base Analogues of 3-(4-amino) Phenylimino) 5-fluoroindolin-2-one” (Journal of Young Pharmacists : JYP, 2010)

Columns and labels:
Type in all cases: in vivo
[1] = tested on: Albino rats of Wistar strain; experiment: Evaluation of ulcerogenicity index (pylorus ligation); set-up: scale not given here; conditions: pylorus ligated on fourth day, mean ± SD (n = 6)
Method: The synthesized compounds were evaluated for analgesic, anti-inflammatory, and ulcerogenic index. […] The test compounds and the standard drugs were administered in the form of a suspension (1% carboxymethyl cellulose as a vehicle) by oral route for analgesic and anti-inflammatory but for ulcerogenicity studies by intraperitoneally as suspension in 10% v/v Tween-20. Each group consisted of six animals. The animals were procured from the C. L. Baid Metha College of pharmacy, Chennai, and were maintained in colony cages at 25 ±2°C, relative humidity of 45-55%, under a 12-h light and dark cycle; they were fed standard animal feed. All the animals were acclimatized for a week before use. The Institutional Animal Ethics Committee approved the protocol adopted for the experimentation of animals. Ulceration in rats was induced as described by Goyal et al. Albino rats of Wistar strain weighing 150-200 g of either sex were divided into various groups each of six animals.[16] Control group of animals was administered only with 10% v/v Tween 80 suspension intraperitonially. One group was administered with aspirin (German Remedies) intraperitoneally at a dose of 200 mg/kg once daily for 3 days. The remaining group of animals was administered with test compounds intraperitoneally at a dose of 20 mg/kg. On fourth day, Pylorus was ligated as per the method of Shay et al.[17] Animals were fasted for 36 h before the pylorus ligation procedure. Four hours after the ligation, animals were sacrificed. The stomach was removed and opened along with the greater curvature. Ulcer index was determined by the method of Ganguly and Bhatnagar.[18]

[2] = tested on: carrageenan-induced paw edema in rats; experiment: Anti-inflammatory activity, carrageenan-induced paw edema test; conditions: for Percent anti-inflammatory activity (percent inhibition of paw edema): mean ± SD (n = 6); for Anti-inflammatory activity compared to reference standard diclofenac sodium (in words): carrageenan-induced paw edema in rats
Method: (§1) The synthesized compounds were evaluated for analgesic, anti-inflammatory, and ulcerogenic index. […] The test compounds and the standard drugs were administered in the form of a suspension (1% carboxymethyl cellulose as a vehicle) by oral route for analgesic and anti-inflammatory but for ulcerogenicity studies by intraperitoneally as suspension in 10% v/v Tween-20. Each group consisted of six animals. The animals were procured from the C. L. Baid Metha College of pharmacy, Chennai, and were maintained in colony cages at 25 ±2°C, relative humidity of 45-55%, under a 12-h light and dark cycle; they were fed standard animal feed. All the animals were acclimatized for a week before use. The Institutional Animal Ethics Committee approved the protocol adopted for the experimentation of animals.
Anti-inflammatory activity was evaluated by carrageenan-induced paw edema test in rats.[15] Diclofenac sodium 10, 20 mg/kg was administered as a standard drug for comparison. The test compounds were administered at two dose levels (10 mg/kg, 20 mg/kg). The paw volumes were measured using the mercury displacement technique with the help of a plethysmograph (Model PLYAN; Buxco, USA) immediately before and 30 min, 1, 2, and 3 h after carrageenan injection. The percent inhibition of paw edema was calculated using the following formula.
Percent inhibition I = 100 1− (a−x) / (b−y)
Where x is the mean paw volume of rats before the administration of carrageenan and test compounds or reference compound (test group), a is the mean paw volume of rats after the administration of carrageenan in the test group (drug treated), b is the mean paw volume of rats after the administration of carrageenan in the control group, y is the mean paw volume of rats before the administration of carrageenan in the control group.

Wistar albino mice = experiment: Analgesic activity, tail-flick technique; conditions: for Percent analgesic activity: mean ± SD (n = 6); for Analgesic activity (in words): tail-flick, structure-activity comparison within the series / vs diclofenac sodium
Method: as §1
The analgesic activity was performed by tail-flick technique using Wistar albino mice (25-35 g) of either sex selected by the random sampling technique.[1314] Diclofenac sodium at a dose level of 10 mg/kg and 20 mg/kg was administered orally as reference drug for comparison. The test compounds at two dose levels (10, 20 mg/kg) were administered orally. The reaction time was recorded at 30 min, 1, 2, and 3 h after the treatment, and cut-off time was 10 s. The percent analgesic activity (PAA) was calculated by the following formula, where T1 is the reaction time (s) before treatment, and T2 is the reaction time (s) after treatment.

[3] = 10 mg/kg oral, 30 min after carrageenan
[4] = 10 mg/kg oral, 1 h after carrageenan
[5] = 10 mg/kg oral, 2 h after carrageenan
[6] = 10 mg/kg oral, 3 h after carrageenan
[7] = 20 mg/kg oral, 30 min after carrageenan
[8] = 20 mg/kg oral, 1 h after carrageenan
[9] = 20 mg/kg oral, 2 h after carrageenan
[10] = 20 mg/kg oral, 3 h after carrageenan
[11] = 10 mg/kg oral, 30 min after treatment
[12] = 10 mg/kg oral, 1 h after treatment
[13] = 10 mg/kg oral, 2 h after treatment
[14] = 10 mg/kg oral, 3 h after treatment
[15] = 20 mg/kg oral, 30 min after treatment
[16] = 20 mg/kg oral, 1 h after treatment
[17] = 20 mg/kg oral, 2 h after treatment
[18] = 20 mg/kg oral, 3 h after treatment
[19] = test compounds 20 mg/kg intraperitoneally

Structure (SMILES)	Percent anti-inflammatory activity (percent inhibition of paw edema) [2, 3]	Percent anti-inflammatory activity (percent inhibition of paw edema) [2, 4]	Percent anti-inflammatory activity (percent inhibition of paw edema) [2, 5]	Percent anti-inflammatory activity (percent inhibition of paw edema) [2, 6]	Percent anti-inflammatory activity (percent inhibition of paw edema) [2, 7]	Percent anti-inflammatory activity (percent inhibition of paw edema) [2, 8]	Percent anti-inflammatory activity (percent inhibition of paw edema) [2, 9]	Percent anti-inflammatory activity (percent inhibition of paw edema) [2, 10]	Percent analgesic activity (Wistar albino mice; [11])	Percent analgesic activity (Wistar albino mice; [12])	Percent analgesic activity (Wistar albino mice; [13])	Percent analgesic activity (Wistar albino mice; [14])	Percent analgesic activity (Wistar albino mice; [15])	Percent analgesic activity (Wistar albino mice; [16])	Percent analgesic activity (Wistar albino mice; [17])	Percent analgesic activity (Wistar albino mice; [18])	Ulcer index [1, 19]	Analgesic activity (in words) (Wistar albino mice)	other results
CC(=O)Oc1ccccc1C(=O)O [Aspirin, aspirin, reference compound]																			Ulcer index ([1]; aspirin 200 mg/kg intraperitoneally once daily for 3 days): 1.73 ± 0.39; Ulcer index ([1]; aspirin 200 mg/kg intraperitoneally once daily for 3 days, listed as aspirin): 1.73 ± 0.41
CCC(C)=Nc1ccc(N=C2C(=O)Nc3ccc(F)cc32)cc1 [Compound N1]	39 ± 1.25 %	45 ± 1.32 %	52 ± 1.15 %	32 ± 1.96 %	44 ± 1.36 %	52 ± 1.96 %	58 ± 1.32 %	37 ± 1.45 %	47 ± 1.25 %	51 ± 1.32 %	53 ± 1.15 %	31 ± 1.96 %	54 ± 1.36 %	58 ± 1.96 %	60 ± 1.16 %	47 ± 1.45 %	0.84 ± 1.43		
CCC(CC)=Nc1ccc(N=C2C(=O)Nc3ccc(F)cc32)cc1 [Compound N2]	42 ± 1.25 %	50 ± 1.38 %	53 ± 1.15 %	45 ± 1.68 %	51 ± 1.44 %	57 ± 1.72 %	62 ± 1.26 %	54 ± 1.67 %	50 ± 1.25 %	56 ± 1.32 %	60 ± 1.15 %	45 ± 1.68 %	57 ± 1.44 %	60 ± 1.90 %	64 ± 1.26 %	50 ± 1.67 %	0.97 ± 1.53		Anti-inflammatory activity compared to reference standard diclofenac sodium (in words) [2]: equipotent
CCCC(C)=Nc1ccc(N=C2C(=O)Nc3ccc(F)cc32)cc1 [Compound N3]	49 ± 1.75 %	54 ± 1.82 %	60 ± 1.35 %	43 ± 1.96 %	54 ± 1.59 %	62 ± 1.77 %	66 ± 1.24 %	52 ± 1.45 %	55 ± 1.75 %	62 ± 1.82 %	64 ± 1.35 %	46 ± 1.96 %	62 ± 1.59 %	66 ± 1.77 %	69 ± 1.24 %	52 ± 1.45 %	0.85 ± 1.28	good activity	Anti-inflammatory activity compared to reference standard diclofenac sodium (in words) [2]: moderately more potent
O=C1Nc2ccc(F)cc2C1=Nc1ccc(N=C2CCCCC2)cc1 [Compound N4]	38 ± 1.82 %	50 ± 1.24 %	55 ± 1.15 %	35 ± 1.76 %	45 ± 1.36 %	56 ± 1.83 %	60 ± 1.19 %	44 ± 1.65 %	48 ± 1.28 %	52 ± 1.52 %	54 ± 1.15 %	35 ± 1.76 %	55 ± 1.36 %	57 ± 1.66 %	59 ± 1.19 %	44 ± 1.65 %	0.89 ± 1.26	moderate decrease in activity	
CC(=Nc1ccc(N=C2C(=O)Nc3ccc(F)cc32)cc1)c1ccccc1 [Compound N5]	39 ± 1.56 %	46 ± 1.88 %	52 ± 1.65 %	32 ± 1.26 %	45 ± 1.73 %	54 ± 1.95 %	59 ± 1.36 %	42 ± 1.48 %	44 ± 1.76 %	49 ± 1.88 %	52 ± 1.55 %	32 ± 1.26 %	52 ± 1.33 %	55 ± 1.95 %	59 ± 1.36 %	42 ± 1.48 %	0.82 ± 1.32	moderate decrease in activity	
O=C1Nc2ccc(F)cc2C1=Nc1ccc(N=Cc2ccccc2)cc1 [Compound N6]	37 ± 1.67 %	42 ± 1.42 %	49 ± 1.58 %	36 ± 1.96 %	46 ± 1.48 %	55 ± 1.76 %	59 ± 1.93 %	38 ± 1.47 %	37 ± 1.87 %	46 ± 1.42 %	49 ± 1.15 %	36 ± 1.96 %	49 ± 1.83 %	54 ± 1.76 %	59 ± 1.18 %	43 ± 1.47 %	0.84 ± 1.78	decreasing activity	
